Values quoted from earlier work in publication PMC11324666, “Two novel in vitro assays to screen chemicals for their capacity to inhibit thyroid hormone transmembrane transporter proteins OATP1C1 and OAT4” (Archives of Toxicology, 2024).

Columns and labels:
oatp1c1 [1] = test system: oatp1c1; parameters: method as in Tohyama et al. (2004); settings: ref Tohyama et al. (2004); cited from earlier work
oatp1c1 [2] = test system: oatp1c1; parameters: method as in Westholm et al. (2009); settings: T4 1 nM; ref Westholm et al. (2009); read-out: IC50 of T4 transmembrane transport inhibition; cited from earlier work

## CCCN(CCC)S(=O)(=O)c1ccc(C(=O)O)cc1 [Probenecid, reference compound]
oatp1c1 [1]
  Ki: 293 µM

## CC1(C)C(/C=C/C=C/C=C/C=C2\N(CCCCS(=O)(=O)O)c3ccc4ccccc4c3C2(C)C)=[N+](CCCCS(=O)(=O)[O-])c2ccc3ccccc3c21 [Indocyanine green, reference compound]
oatp1c1 [2]
  IC50: 0.1 µM
